Experimental data published in US20230357179A1, “RAF KINASE INHIBITORS AND METHODS OF USE THEREOF” (Deciphera Pharmaceuticals, LLC, priority 2021, published 2023).

What was measured:
H2405 cells = test: H2405 cell proliferation assay (1), resazurin, 96-well; format: cell-based; conditions: Homo sapiens, NCI-H2405, inhibition of cell proliferation
Summary of the method: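 This is a resazurin viability readout (excitation 540 nm, emission 600 nm) taken 5-6 h after adding 440 μM resazurin solution, giving IC50 values.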

B-Raf (V600E) kinase = target: T1, B-Raf (V600E) kinase (Homo sapiens, UniProt P15056, V600E); test: Biochemical assay for B-Raf (V600E).1 (coupled pyruvate kinase/lactate dehydrogenase); conditions: read-out: BRAF V600E.1 IC50
T1 construct: B-Raf (V600E) residues 416-766 with a; GST (N); purchased SignalChem
Summary of the method: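 0.03 nM B-Raf(V600E) phosphorylating 30.1 nM MEK at 1 mM ATP, pH 7.5, coupled to PK/LDH, with NADH oxidation followed at 340 nm for 6 h at 30 °C. Rates taken from the 3-4 h window. IC50 from a four-parameter fit of percent inhibition.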

Miapaca-2 cells = test: MiaPaca-2 cell proliferation assay (1), resazurin, 96-well; format: cell-based; conditions: Homo sapiens, MIA PaCa-2, inhibition of cell proliferation
Summary of the method: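 Three thousand cells per well in DMEM with 10% FBS and 2.5% horse serum exposed to serially diluted compound in triplicate for 67-72 h at 37 °C, 5% CO2. Viability by resazurin (additional 5-6 h), fluorescence ex 540/em 600 nm; IC50 calculated.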

C-Raf kinase = target: T2, C-Raf kinase (Homo sapiens, UniProt P04049, Y340D/Y341D); test: Biochemical assay for C-Raf.1 (coupled pyruvate kinase/lactate dehydrogenase); conditions: read-out: CRAF.1 IC50
T2 construct: Y340D,; GST (N); purchased Sigma
Summary of the method: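 C-Raf (0.43 nM) with MEK 30.1 nM and 1 mM ATP in Tris pH 7.5/MgCl2 buffer, activity coupled via PK/LDH to NADH oxidation (A340), 6 h at 30° C. Rates from 4–5 h window converted to % inhibition versus controls; IC50 by four-parameter fit, 1% DMSO.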

T2 sequence (P04049 307-648 Y340D/Y341D): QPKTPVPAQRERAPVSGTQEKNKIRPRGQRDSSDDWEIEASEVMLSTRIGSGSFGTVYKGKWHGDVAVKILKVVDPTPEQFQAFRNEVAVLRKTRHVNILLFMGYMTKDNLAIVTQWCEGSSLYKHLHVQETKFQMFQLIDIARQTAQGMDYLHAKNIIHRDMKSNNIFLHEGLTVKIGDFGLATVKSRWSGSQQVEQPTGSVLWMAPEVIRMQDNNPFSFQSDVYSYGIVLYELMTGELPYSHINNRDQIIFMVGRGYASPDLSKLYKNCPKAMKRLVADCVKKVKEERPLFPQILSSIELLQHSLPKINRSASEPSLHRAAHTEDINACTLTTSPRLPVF
T1 sequence (P15056 416-766 V600E): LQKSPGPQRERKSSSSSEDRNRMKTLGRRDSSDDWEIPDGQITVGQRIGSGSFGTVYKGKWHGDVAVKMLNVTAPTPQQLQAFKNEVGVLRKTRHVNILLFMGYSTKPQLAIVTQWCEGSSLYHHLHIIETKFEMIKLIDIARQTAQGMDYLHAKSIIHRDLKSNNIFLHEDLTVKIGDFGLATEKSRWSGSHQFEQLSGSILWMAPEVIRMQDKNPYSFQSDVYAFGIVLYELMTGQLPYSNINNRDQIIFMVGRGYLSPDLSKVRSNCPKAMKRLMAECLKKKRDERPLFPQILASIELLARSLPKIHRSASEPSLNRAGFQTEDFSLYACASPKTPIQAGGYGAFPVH

| Structure (SMILES) | IC50 (H2405 cells) | IC50 (B-Raf (V600E) kinase) | IC50 (Miapaca-2 cells) | IC50 (C-Raf kinase) |
| --- | --- | --- | --- | --- |
| COC(=O)Nc1cc(-c2cc(-c3cc(NC(=O)NCCC4(C)CC4)c(F)cc3C)cc(OCCO)n2)ccn1 [Example 77] | 100 to 500 nM | ≤ 100 nM | 1000 to 10000 nM | ≤ 100 nM |
| Cc1cc(F)c(NC(=O)NCCC2(C)CC2)cc1-c1ccnc(-c2ccnc3c2CC(=O)N3)c1 [Example 79] | 500 to 1000 nM | ≤ 100 nM | 1000 to 10000 nM | ≤ 100 nM |
| Cc1cc(F)c(NC(=O)NC2CC(C)(C)C2)cc1-c1cc(OCCO)nc(-c2ccnc(NC(=O)C3CC3)c2)c1 [Example 80] | ≤ 100 nM | ≤ 100 nM | 1000 to 10000 nM | ≤ 100 nM |
| Cc1ncc(NC(=O)NCCC2(C)CC2)cc1-c1nccc(-c2ccnc(NC(=O)C3CC3)c2)n1 [Example 81] | 100 to 500 nM | ≤ 100 nM | 1000 to 10000 nM | ≤ 100 nM |
| COC(C)(C)CCNC(=O)Nc1cnc(C)c(-c2nccc(-c3ccnc(NC(=O)C4CC4)c3)n2)c1 [Example 82] | 1000 to 10000 nM | ≤ 100 nM | 1000 to 10000 nM | ≤ 100 nM |
| COC(C)(C)CCNC(=O)Nc1cc(-c2nccc(-c3ccnc(NC(=O)C4CC4)c3)n2)c(C)cc1F [Example 83] | 100 to 500 nM | ≤ 100 nM | 1000 to 10000 nM | ≤ 100 nM |

Results, then the compound that gave them:

| IC50 (H2405 cells) | IC50 (B-Raf (V600E) kinase) | IC50 (Miapaca-2 cells) | IC50 (C-Raf kinase) | Structure (SMILES) |
| --- | --- | --- | --- | --- |
| 1000 to 10000 nM | ≤ 100 nM | 1000 to 10000 nM | ≤ 100 nM | COC1(CCNC(=O)Nc2cnc(C)c(-c3cccc(-c4cc(NC(=O)C5CC5)ncn4)c3)c2)CC1 [Example 84] |
| 100 to 500 nM | ≤ 100 nM | 1000 to 10000 nM | ≤ 100 nM | Cc1ccc(NC(=O)N2CC[C@H](C(F)(F)F)C2)cc1-c1cncc(-c2cc(NC(=O)C3CC3)ncn2)c1 [Example 195] |
| 100 to 500 nM | ≤ 100 nM | 1000 to 10000 nM | ≤ 100 nM | Cc1ccc(NC(=O)N2CC[C@H](C(F)(F)F)C2)cc1-c1cccc(-c2cc(NC(=O)C3CC3)ncn2)c1 [Example 200] |
| 100 to 500 nM | ≤ 100 nM | 1000 to 10000 nM | ≤ 100 nM | Cc1ccc(NC(=O)N2CC[C@@H](C(F)(F)F)C2)cc1-c1cccc(-c2cc(NC(=O)C3CC3)ncn2)c1 [Example 201] |
| 100 to 500 nM | 100 to 500 nM | 1000 to 10000 nM | 100 to 500 nM | CNC(=O)c1cc(-c2cncc(-c3cc(NC(=O)N4CC[C@H](C(F)(F)F)C4)c(F)cc3C)c2)ccn1 [Example 214] |
| 100 to 500 nM | ≤ 100 nM | 1000 to 10000 nM | ≤ 100 nM | Cc1cc(F)c(NC(=O)N2CC[C@H](C(F)(F)F)C2)cc1-c1cncc(-c2cc(NC(=O)C3CC3)ncn2)c1 [Example 216] |
| 100 to 500 nM | ≤ 100 nM | 500 to 1000 nM | ≤ 100 nM | Cc1ccc(NC(=O)N2CC[C@@H](C(C)C)C2)cc1-c1cncc(-c2cc(NC(=O)C3CC3)ncn2)c1 [Example 217] |
| ≤ 100 nM | ≤ 100 nM | 500 to 1000 nM | ≤ 100 nM | Cc1ccc(NC(=O)N2CC[C@H](C(C)C)C2)cc1-c1cncc(-c2cc(NC(=O)C3CC3)ncn2)c1 [Example 221] |
